These are literature values, as cited in US6479458B1, “Targeting the reverse mode of the Na+/Ca2+ exchanger for the treatment of optic neuropathy associated with glaucoma and ischemic optic neuropathy” (Allergan, Inc., priority 2001, dated 2002).

In one data set the test system is Na+/Ca2+ exchanger. To be noted: variety of cell types including neurons.

As for cyclosporin A, the “inhibition of sodium-calcium exchange” value with sodium-calcium exchange was “specific activity in the inhibition of sodium-calcium exchange”.

As for `CS(=O)(=O)O.N=C(N)SCCc1ccc(OCc2ccc([N+](=O)[O-])cc2)cc1` [KB-R743], in the data set on Na+/Ca2+ exchanger, the “block of the reverse mode of the Na+/Ca2+ exchanger” value was “preferentially block the reverse mode”.
